Some test systems named below: RPMI-8226; HT-29; KM12; Malme-3M; ACHN; HCC 2998; SK-MEL-28; SK-OV-3; NCI-H23; UACC-257; SF-539; OVCAR-5; HCT-15; SNB-19; M14; CAKI-1.
Common to all, as to test: growth of human tumour cells (NCI), 48 h

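Values below derive from 48-hour exposures of cells grown in 96-well plates, with endpoints linearly interpolated between the two concentrations bracketing the appropriate inhibition level. GI50 marks 50% less growth.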 Calls of active or inactive are those of the source. Rule as the data show it: active = GI50 up to about 1.1 µM and inactive = higher.

As for `N#CC1(Cc2ccccc2Cl)c2ccccc2C=CN1C(=O)c1ccccc1` (stereo not drawn), the GI50 with RPMI-8226 was 66.5 µM (inactive); with HT-29, 75.5 µM (inactive); with KM12, > 100 µM (inactive); in the assay on Malme-3M it was 34.1 µM (inactive); with ACHN, 90.8 µM (inactive); in the assay on HCC 2998, > 100 µM (inactive). Besides, the GI50 was 54.8 µM (inactive) with SK-MEL-28; > 100 µM (inactive) in the assay on SK-OV-3; 28.2 µM (inactive) with NCI-H23; 78.7 µM (inactive) with UACC-257; > 100 µM (inactive) in the assay on SF-539; > 100 µM (inactive) in the assay on OVCAR-5. Also, the GI50 in the assay on HCT-15 was 98.6 µM; in the assay with SNB-19 it was > 100 µM (inactive); in the assay with M14, > 100 µM (inactive).
As for `O=C(O)C(CS)NCc1c2ccccc2[n+]([O-])c2ccccc12` (stereo not drawn), the GI50 with RPMI-8226 was 26.3 µM (inactive); in the assay on HT-29, 37.8 µM (inactive); in the assay with KM12, 31.2 µM (inactive); with Malme-3M, 63.1 µM (inactive); in the assay with ACHN it was 33.4 µM (inactive); in the assay on HCC 2998, 36.1 µM (inactive). Moreover, the GI50 was 35.2 µM (inactive) in the assay on SK-MEL-28; > 100 µM (inactive) in the assay on SK-OV-3; 31 µM (inactive) with NCI-H23; > 100 µM (inactive) in the assay on UACC-257; > 100 µM (inactive) in the assay with OVCAR-5; 22.8 µM with HCT-15. The values for the GI50 in the assay with SNB-19, in the assay with M14 and in the assay on CAKI-1 were 38 µM (inactive), 46.1 µM (inactive) and 83.6 µM (inactive), respectively.
`Cc1nc(=O)[nH]c2[nH][nH]c(=O)c12`: the GI50 in the assay with RPMI-8226, with HT-29, in the assay with KM12, in the assay on Malme-3M, with ACHN and with SK-MEL-28 was > 100 µM (inactive) each time. In addition, the GI50 with SK-OV-3 is > 100 µM (inactive); with NCI-H23, > 100 µM (inactive); with SF-539, > 100 µM (inactive); with OVCAR-5 it was > 100 µM (inactive); in the assay with HCT-15, > 100 µM; in the assay on M14, > 100 µM (inactive). Besides, in the assay with CAKI-1, the GI50 was > 100 µM (inactive).
With `COc1cc2c(cc1OC)-c1c3cc(O)ccc3nn[n+]1CC2`, the GI50 in the assay with RPMI-8226, in the assay on HT-29, in the assay on KM12, with HCC 2998, in the assay with SK-MEL-28 and in the assay with SK-OV-3 was > 100 µM (inactive) in each case. Further, the GI50 in the assay with NCI-H23, in the assay with SF-539, with SNB-19 and in the assay with M14 was > 100 µM (inactive) throughout.
As to `O=C1NC2(CCCC2)C(=O)C12CCCC2`, the GI50 with RPMI-8226, in the assay with HT-29, in the assay with KM12, with Malme-3M, in the assay on ACHN and in the assay with SK-MEL-28 was > 100 µM (inactive) in each case. The GI50 in the assay on SK-OV-3 is > 100 µM (inactive); with NCI-H23, > 100 µM (inactive); with UACC-257, > 100 µM (inactive); in the assay on SF-539, > 100 µM (inactive); in the assay with OVCAR-5, > 100 µM (inactive); in the assay with HCT-15, > 100 µM. The GI50 with SNB-19, in the assay with M14 and with CAKI-1 was > 100 µM (inactive) in each case.
As to `CN(C(=O)/C=C/c1ccccc1)C1C2CN3CCC(O2)C13` (stereo not drawn), the GI50 with HT-29, with KM12, in the assay on Malme-3M, with ACHN, in the assay with HCC 2998 and in the assay with SK-MEL-28 was > 100 µM (inactive) each time. Also, the GI50 in the assay on SK-OV-3 is > 100 µM (inactive); with NCI-H23, > 100 µM (inactive); with UACC-257, > 100 µM (inactive); with SF-539 it was > 100 µM (inactive); in the assay on OVCAR-5, > 100 µM (inactive); in the assay with HCT-15, > 100 µM. Moreover, the GI50 with SNB-19, in the assay with M14 and in the assay with CAKI-1 was > 100 µM (inactive) throughout.

The values are drawn from ChEMBL document CHEMBL1201862, “PubChem BioAssay data set” (2004).
